Tests used:
rat A2A AR = target: T1, rat A2A AR (Rattus norvegicus, UniProt P30543); test: Radioligand binding assay at rat A2A AR (rat brain striatum) vs. [^3H]MSX-2; settings: rat (r); for Ki: rat brain striatum, n = 3, read-out: Ki ± SEM, A2A vs. [^3H]MSX-2
T1 construct: A2A ARs of rat brain striatal membrane preparations; from tissue; host or cells: rat brain striatum membranes
Outline: (§1)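 Rat A1 binding used brain cortex membranes with [^3H]CCPA; rat A2A used striatal membranes with [^3H]MSX-2. Human A2B (and other human subtypes) assayed on membranes of CHO cells recombinantly expressing the receptor, A2B versus [^3H]PSB-603.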

recombinant human MAO-B = target: T2, recombinant human MAO-B (Homo sapiens, UniProt P27338); test: Monoamine oxidase assay (Amplex Red), MAO-B; assay type: biochemical; settings: for inhibition at 10 µM: at 10,000 nM (10 μM), read-out: % inhibition at indicated concentration, Human MAO-B; for IC50: n = 3, read-out: IC50 ± SEM, Human MAO-B
T2 construct: purchased Sigma-Aldrich M7441; host or cells: baculovirus-infected insect cells
T2 sequence (P27338 1-520): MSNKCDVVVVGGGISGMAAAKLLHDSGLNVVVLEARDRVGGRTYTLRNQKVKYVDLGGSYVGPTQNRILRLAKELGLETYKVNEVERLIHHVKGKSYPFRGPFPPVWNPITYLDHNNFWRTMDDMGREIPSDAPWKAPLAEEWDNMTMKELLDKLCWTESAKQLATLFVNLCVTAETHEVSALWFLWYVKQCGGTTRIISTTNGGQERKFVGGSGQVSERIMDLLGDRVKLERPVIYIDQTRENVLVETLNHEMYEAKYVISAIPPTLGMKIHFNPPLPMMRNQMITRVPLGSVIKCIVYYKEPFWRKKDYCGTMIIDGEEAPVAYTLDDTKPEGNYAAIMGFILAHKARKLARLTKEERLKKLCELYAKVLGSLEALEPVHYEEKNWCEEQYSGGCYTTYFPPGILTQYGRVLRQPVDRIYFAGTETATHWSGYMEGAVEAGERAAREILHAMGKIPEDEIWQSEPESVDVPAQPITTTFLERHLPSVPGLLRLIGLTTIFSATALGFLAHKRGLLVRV
Outline: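 Recombinant human MAO-A and MAO-B, expressed in baculovirus-infected insect cells, were assayed by Amplex Red fluorometric detection. Rat MAO-B inhibition used mitochondria-enriched fractions from male Sprague Dawley rat liver.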

rat A1 AR = target: T3, rat A1 AR (Rattus norvegicus, UniProt P25099); test: Radioligand binding assay at rat A1 AR (rat brain cortex) vs. [^3H]CCPA; settings: rat (r); rat brain cortex; n = 3
T3 construct: A1 ARs of rat brain cortical membrane; from tissue; host or cells: rat brain cortex membranes
T3 sequence (P25099 1-326): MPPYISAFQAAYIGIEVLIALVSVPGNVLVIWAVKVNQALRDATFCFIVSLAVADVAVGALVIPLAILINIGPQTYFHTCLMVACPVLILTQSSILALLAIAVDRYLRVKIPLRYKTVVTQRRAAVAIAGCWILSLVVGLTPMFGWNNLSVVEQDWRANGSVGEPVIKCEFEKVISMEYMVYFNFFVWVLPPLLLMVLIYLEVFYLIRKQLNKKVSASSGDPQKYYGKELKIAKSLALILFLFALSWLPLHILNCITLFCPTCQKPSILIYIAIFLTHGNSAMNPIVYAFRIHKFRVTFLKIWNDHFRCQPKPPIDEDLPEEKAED
Outline: as §1

human A1 AR = target: T4, human A1 AR (Homo sapiens, UniProt P30542); test: Radioligand binding assay at human A1 AR vs. [^3H]CCPA; settings: human (h); CHO cell membranes; n = 3
T4 construct: expressed in transfected cells; host or cells: CHO cells
T4 sequence (P30542 1-326): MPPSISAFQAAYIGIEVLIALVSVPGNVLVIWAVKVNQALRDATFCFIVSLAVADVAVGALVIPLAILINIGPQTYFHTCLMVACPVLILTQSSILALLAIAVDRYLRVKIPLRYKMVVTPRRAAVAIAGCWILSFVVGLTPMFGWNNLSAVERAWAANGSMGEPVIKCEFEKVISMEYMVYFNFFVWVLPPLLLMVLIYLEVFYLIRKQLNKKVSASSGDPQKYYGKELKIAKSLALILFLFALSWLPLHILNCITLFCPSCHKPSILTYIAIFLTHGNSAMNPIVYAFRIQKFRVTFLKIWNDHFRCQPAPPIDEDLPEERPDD
Protocol: (§2) Membrane preparations and radioligand binding assays at rat A1 (rat brain cortex) and rat A2A ARs (rat brain striatum) were performed as previously described (Ozola et al., [2003]; Alnouri et al., [2015]). For assays at human A1, A2A, A2B, and A3 ARs, CHO cell membranes expressing one of the human AR subtypes were used as previously reported (Klotz et al., [1998]; Alnouri et al., [2015]; De Filippo et al., [2016]).
(§3) The synthesized tetrahydropyrazino[2,1-f ]purinediones 13–20 were evaluated in radioligand binding assays for their affinity to A1 ARs of rat brain cortical membrane and to A2A ARs of rat brain striatal membrane preparations. Selected compounds were further investigated for their affinity to human A1 and A2A ARs recombinantly expressed in Chinese hamster ovary (CHO) cells. All compounds were additionally investigated for their affinity to human A2B and A3 ARs recombinantly expressed in CHO cells to determine their AR subtype selectivity. […] It is well known that all xanthine derivatives lacking a ribose moiety, including tricyclic compounds, can only block ARs, but never act as AR agonists; therefore, additional functional studies were not required. […] Potent MAO-B inhibitors were additionally investigated for inhibition of human MAO-A to assess their selectivity. Results are presented in Tables 1–6, and data of standard ligands are included for comparison.

human A2B AR = target: T5, human A2B AR (Homo sapiens, UniProt P29275); test: Radioligand binding assay at human A2B AR vs. [^3H]PSB-603; settings: for Ki: CHO cell membranes, n = 2 (n = 3 where marked a), read-out: Ki ± SEM, A2B vs. [^3H]PSB-603; for inhibition at 1 µM: at 1,000 nM, read-out: % inhibition of radioligand binding at indicated concentration, A2B vs. [^3H]PSB-603
T5 construct: expressed in transfected cells; host or cells: CHO cells
T5 sequence (P29275 1-332): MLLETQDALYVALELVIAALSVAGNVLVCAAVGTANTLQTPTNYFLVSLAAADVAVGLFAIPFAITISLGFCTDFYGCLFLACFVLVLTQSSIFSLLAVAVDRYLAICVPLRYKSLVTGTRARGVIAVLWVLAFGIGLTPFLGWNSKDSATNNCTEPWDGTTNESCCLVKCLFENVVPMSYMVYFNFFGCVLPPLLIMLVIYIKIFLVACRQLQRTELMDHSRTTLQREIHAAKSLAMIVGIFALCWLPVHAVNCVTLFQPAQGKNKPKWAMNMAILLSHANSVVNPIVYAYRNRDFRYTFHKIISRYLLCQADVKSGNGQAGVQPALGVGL
Outline: as §1

human A2A AR = target: T6, human A2A AR (Homo sapiens, UniProt P29274); test: Radioligand binding assay at human A2A AR vs. [^3H]MSX-2; settings: CHO cell membranes, n = 3, read-out: Ki ± SEM, A2A vs. [^3H]MSX-2
T6 construct: expressed in transfected cells; host or cells: CHO cells
T6 sequence (P29274 whole entry): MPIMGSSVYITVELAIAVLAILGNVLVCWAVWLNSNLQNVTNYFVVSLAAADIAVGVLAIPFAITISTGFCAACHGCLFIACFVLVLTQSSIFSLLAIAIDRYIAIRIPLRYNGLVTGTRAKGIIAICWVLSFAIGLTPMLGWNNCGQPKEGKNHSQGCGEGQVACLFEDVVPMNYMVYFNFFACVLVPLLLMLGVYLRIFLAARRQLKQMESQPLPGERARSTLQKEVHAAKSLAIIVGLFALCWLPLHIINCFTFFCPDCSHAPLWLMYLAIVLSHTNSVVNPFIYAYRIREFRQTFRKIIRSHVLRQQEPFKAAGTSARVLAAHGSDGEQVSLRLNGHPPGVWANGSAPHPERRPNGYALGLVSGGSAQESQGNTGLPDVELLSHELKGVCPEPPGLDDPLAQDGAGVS
Protocol: as §2, §3

human A3 AR = target: T7, human A3 AR (Homo sapiens, UniProt P0DMS8); test: Radioligand binding assay at human A3 AR vs. [^3H]PSB-11; settings: for Ki: CHO cell membranes, n = 2 (n = 3 where marked a), read-out: Ki ± SEM, A3 vs. [^3H]PSB-11; for inhibition at 10 µM: at 10,000 nM
T7 construct: expressed in transfected cells; host or cells: CHO cells
T7 sequence (P0DMS8 1-318): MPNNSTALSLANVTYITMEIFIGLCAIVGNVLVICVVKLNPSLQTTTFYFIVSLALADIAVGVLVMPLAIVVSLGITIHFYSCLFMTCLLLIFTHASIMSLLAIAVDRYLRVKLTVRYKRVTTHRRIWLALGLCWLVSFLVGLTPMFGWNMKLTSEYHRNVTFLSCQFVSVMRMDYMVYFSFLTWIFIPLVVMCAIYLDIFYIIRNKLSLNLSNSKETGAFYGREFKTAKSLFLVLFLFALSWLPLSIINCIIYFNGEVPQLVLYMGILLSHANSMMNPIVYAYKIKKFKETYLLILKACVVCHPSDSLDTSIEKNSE
Outline: as §1

recombinant human MAO-A = target: T8, recombinant human MAO-A (Homo sapiens, UniProt P21397); test: Monoamine oxidase assay (Amplex Red), MAO-A; assay type: biochemical
T8 construct: purchased Sigma-Aldrich M7316; host or cells: baculovirus-infected insect cells
T8 sequence (P21397 1-527): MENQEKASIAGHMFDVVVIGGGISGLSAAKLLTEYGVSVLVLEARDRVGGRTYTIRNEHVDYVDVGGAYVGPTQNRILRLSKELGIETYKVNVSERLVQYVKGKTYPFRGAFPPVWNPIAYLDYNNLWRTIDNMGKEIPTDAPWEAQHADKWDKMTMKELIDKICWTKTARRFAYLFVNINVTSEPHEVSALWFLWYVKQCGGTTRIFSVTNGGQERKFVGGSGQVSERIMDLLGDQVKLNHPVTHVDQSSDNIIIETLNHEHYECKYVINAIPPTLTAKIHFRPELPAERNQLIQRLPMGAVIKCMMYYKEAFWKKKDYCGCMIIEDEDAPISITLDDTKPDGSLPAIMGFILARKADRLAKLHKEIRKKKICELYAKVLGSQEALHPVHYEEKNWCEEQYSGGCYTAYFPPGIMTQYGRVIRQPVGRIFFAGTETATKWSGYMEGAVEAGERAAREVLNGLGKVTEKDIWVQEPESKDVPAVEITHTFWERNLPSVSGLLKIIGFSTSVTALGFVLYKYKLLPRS
Protocol: The determination of MAO-A and MAO-B inhibition was performed using commercially available recombinant human MAO-A and MAO-B enzymes expressed in baculovirus-infected insects sells (Sigma-Aldrich, M7316 and M7441) applying the commercially available Amplex® Red monoamine oxidase assay kit (Invitrogen A12214). The assays were performed as previously described. The determination of rat MAO-B inhibition was performed using mitochondrial-enriched fractions from male Sprague Dawley rat livers. […]

[1] = read-out: % inhibition of radioligand binding at indicated concentration, A3 vs. [^3H]PSB-11

T1 sequence (P30543 whole entry): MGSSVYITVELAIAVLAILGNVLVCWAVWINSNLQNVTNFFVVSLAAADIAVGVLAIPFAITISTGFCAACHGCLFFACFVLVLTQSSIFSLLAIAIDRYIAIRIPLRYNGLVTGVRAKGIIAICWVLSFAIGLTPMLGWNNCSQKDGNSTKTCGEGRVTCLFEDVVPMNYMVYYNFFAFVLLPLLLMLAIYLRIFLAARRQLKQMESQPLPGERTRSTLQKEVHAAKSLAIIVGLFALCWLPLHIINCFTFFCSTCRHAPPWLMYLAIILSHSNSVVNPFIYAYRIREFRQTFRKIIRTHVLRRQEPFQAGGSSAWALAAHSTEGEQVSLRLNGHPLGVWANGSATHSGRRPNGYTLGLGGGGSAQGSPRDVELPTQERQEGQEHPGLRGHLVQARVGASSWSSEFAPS

SMILES	Ki (rat A2A AR)	inhibition at 10 µM (recombinant human MAO-B)	IC50 (recombinant human MAO-B)	Ki (rat A1 AR)	Ki (human A1 AR)	Ki (human A2B AR)	inhibition at 1 µM (human A2B AR)	Ki (human A2A AR)	Ki (human A3 AR)	inhibition at 10 µM (human A3 AR; [1])	% inhibition of radioligand binding at indicated concentration, A2A vs. [^3H]MSX-2 (rat A2A AR; at 1,000 nM)	inhibition at 10 µM (recombinant human MAO-A; at 10,000 nM, read-out: % inhibition at indicated concentration, Human MAO-A)	IC50 (recombinant human MAO-A; n = 3, read-out: IC50 ± SEM, Human MAO-A)	inhibition at 1 µM (human A3 AR; at 1,000 nM, read-out: % inhibition of radioligand binding at indicated concentration, A3 vs. [^3H]PSB-11)
CCn1c(=O)c2c(nc3n2CCN(Cc2cc(F)cc(C(F)(F)F)c2)C3)n(C)c1=O [Compound 14p, 3-ethyl-8-(3-fluoro-5-(trifluoromethyl)benzyl)-1-methyl-6,7,8,9-tetrahydropyrazino[2,1-f]purine-2,4(1H,3H)-dione]	801 ± 99 nM	23%	> 10 µM	111 ± 25 nM	330 ± 67 nM	> 1000 nM	5%	503 ± 121 nM	> 10 µM	39%				
CCn1c(=O)c2c(nc3n2CCN(Cc2cccc(Cl)c2)C3)n(CC)c1=O [Compound 15c, 8-(3-chlorobenzyl)-1,3-diethyl-6,7,8,9-tetrahydropyrazino[2,1-f]purine-2,4(1H,3H)-dione]	> 1000 nM	47%	≥ 10 µM	85.9 ± 28.6 nM	128 ± 17 nM	> 1000 nM	12%	2380 nM	5.41 µM		22%			
CCn1c(=O)c2c(nc3n2CCN(Cc2cccc(Br)c2)C3)n(CC)c1=O [Compound 15d, 8-(3-bromobenzyl)-1,3-diethyl-6,7,8,9-tetrahydropyrazino[2,1-f]purine-2,4(1H,3H)-dione]	1040 nM	49%	≥ 10 µM	21.5 ± 8.3 nM	13.6 ± 2.1 nM	496 ± 135 nM		1050 nM	7.22 µM					
CCn1c(=O)c2c(nc3n2CCN(Cc2ccc(Br)cc2)C3)n(CC)c1=O [Compound 15e, 8-(4-bromobenzyl)-1,3-diethyl-6,7,8,9-tetrahydropyrazino[2,1-f]purine-2,4(1H,3H)-dione]	1140 nM		6.51 µM	54 ± 9.1 nM		> 1000 nM	39%	4420 nM	> 1 µM			25%	> 10 µM	12%
CCn1c(=O)c2c(nc3n2CCN(Cc2cccc(C(F)(F)F)c2F)C3)n(CC)c1=O [Compound 15h, 1,3-diethyl-8-(2-fluoro-3-(trifluoromethyl)benzyl)-6,7,8,9-tetrahydropyrazino[2,1-f]purine-2,4(1H,3H)-dione]	895 ± 210 nM	32%	> 10 µM	172 ± 28 nM	189 ± 29 nM	> 1000 nM	30%	663 ± 54 nM	> 10 µM	29%				
